Data on 20 compounds can be found in patent US10913742B2, “Oxadiazolones as transient receptor potential channel inhibitors” (Genentech, Inc., priority 2017, dated 2021).

The target in series [1] is human TRPA1 (Homo sapiens (Human), UniProt O75762). In words: hTRPA1 CHO Ca2+ FLIPR assay (block of cinnamaldehyde induced calcium influx). The class given is cell-based. The procedure, abridged:
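CHO cells expressing TRPA1 loaded with calcium dye (1 h at 37° C, then 15 min at room temperature) in HBSS/20 mM HEPES pH 7.4/0.02% BSA. Compounds preincubated 20 min at room temperature before cinnamaldehyde addition, with FLIPR Ca2+ readout. IC50 from Hill fit, n fixed at 1.5.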

Series [2] can be described thus: Rat liver microsome clearance (RLM-CLhep). In kind it is in vitro ADME. The settings on record: 0.5 mg/ml protein, 1 mM NADPH, 1 μM compound, 37° C. As to the method:
(§1) Certain pharmacokinetic attributes were evaluated for some compounds of the present disclosure. […] The compounds of the present disclosure were discovered to provide for an unexpected combination of high potency as measured by hTRPA1 IC50 and high stability as measured by RLM-CLhep, HLM-CLhep and Rat IV PK.
(§2) The reactions were incubated at 37° C. for 0, 20, 40 and 60 minutes and at each allotted time point an aliquot of the reaction mixture was added to ice-cold acetonitrile with internal standard. The samples were subsequently centrifuged at 3000×g for 10 minutes and supernatant was diluted in water before LC-MS/MS analysis.
For orientation: Liver microsomes are vesicles of endoplasmic reticulum, rich in cytochrome P450 enzymes.

Series [3] is described as follows: Human liver microsome clearance (HLM-CLhep). In kind it is in vitro ADME. The settings on record: 0.5 mg/ml protein, 1 mM NADPH, 1 μM compound, 37° C. As for the experimental part: as §1, §2
Series [4] is described as follows: Rat IV PK (hepatic clearance). The class given is in vivo. As to conditions: rat IV dose of 1 mg/kg. As for the experimental part:
as §1

Where [5] appears, read: repeated from Table 1, read-out: hTRPA1 IC50.
[6] abbreviates: CHO cells expressing TRPA1, 75 uM cinnamaldehyde, Hill coefficient fixed to 1.5, read-out: hTRPA1 (hTRPA1 CHO Ca2+ MAX EVO (IC50)).

Structures are written as SMILES. Like-named read-outs stand apart in the source and are kept apart here.

human TRPA1, sequence (O75762 whole entry): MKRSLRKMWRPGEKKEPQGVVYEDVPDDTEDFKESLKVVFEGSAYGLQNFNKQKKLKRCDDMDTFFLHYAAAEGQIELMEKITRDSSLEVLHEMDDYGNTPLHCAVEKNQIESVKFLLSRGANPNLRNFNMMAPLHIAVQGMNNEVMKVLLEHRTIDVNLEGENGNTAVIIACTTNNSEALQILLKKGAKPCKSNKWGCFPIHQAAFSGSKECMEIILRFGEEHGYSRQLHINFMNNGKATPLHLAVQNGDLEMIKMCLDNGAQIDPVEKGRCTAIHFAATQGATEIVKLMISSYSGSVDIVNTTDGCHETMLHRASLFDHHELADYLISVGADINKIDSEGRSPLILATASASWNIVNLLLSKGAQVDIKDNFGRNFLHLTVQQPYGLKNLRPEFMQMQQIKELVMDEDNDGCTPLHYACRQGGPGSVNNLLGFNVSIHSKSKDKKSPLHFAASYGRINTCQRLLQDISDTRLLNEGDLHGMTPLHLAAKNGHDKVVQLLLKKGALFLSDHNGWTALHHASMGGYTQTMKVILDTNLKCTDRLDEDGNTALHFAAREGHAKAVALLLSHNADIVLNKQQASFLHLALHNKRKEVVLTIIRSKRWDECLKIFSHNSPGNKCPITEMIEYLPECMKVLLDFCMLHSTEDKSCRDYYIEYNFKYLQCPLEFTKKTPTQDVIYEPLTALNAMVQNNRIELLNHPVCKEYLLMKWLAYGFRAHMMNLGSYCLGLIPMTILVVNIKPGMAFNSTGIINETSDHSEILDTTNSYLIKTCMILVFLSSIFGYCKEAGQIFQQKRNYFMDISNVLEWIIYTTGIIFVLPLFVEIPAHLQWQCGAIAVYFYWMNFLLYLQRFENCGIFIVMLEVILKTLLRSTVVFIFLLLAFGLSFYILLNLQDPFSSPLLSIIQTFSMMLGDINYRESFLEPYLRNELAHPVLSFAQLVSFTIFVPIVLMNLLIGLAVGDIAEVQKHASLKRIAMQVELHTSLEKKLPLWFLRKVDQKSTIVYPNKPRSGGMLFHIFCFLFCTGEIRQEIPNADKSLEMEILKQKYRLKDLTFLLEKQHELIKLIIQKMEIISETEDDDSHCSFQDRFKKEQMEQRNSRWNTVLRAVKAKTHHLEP

By IC50 is commonly meant the concentration needed to halve the response being measured. Turning to `Cn1cnc2ncn(Cc3nn(C[C@@H](F)c4ccc(Cl)cc4)c(=O)o3)c(=O)c21` [Example Compound 14, (S)-3-(2-(4-chlorophenyl)-2-fluoroethyl)-5-((7-methyl-6-oxo-6H-purin-1 (7H)-yl)methyl)-1,3,4-oxadiazol-2(3H)-one], the IC50 in series [1] (setting [5]) was 34 nM. The “RLM-CLhep (rat liver microsome clearance)” value (from here on “RLM-CLhep”) in series [2] was determined as 28 mL/min/kg. Further, the “HLM-CLhep (human liver microsome clearance)” value (from here on “HLM-CLhep”) in series [3] is given as 6 mL/min/kg. The “Rat IV PK (hepatic clearance)” value in series [4] worked out at 17 mL/min/kg.
Turning to `O=c1c2cccnc2ncn1Cc1nn([C@@H]2CC[C@@H](c3ccc(F)cc3)C2)c(=O)o1` (racemic) [compound 78, 5-[(4-oxopyrido[2,3-d]pyrimidin-3-yl)methyl]-3-[rac-(1R,3R)-3-(4-fluorophenyl)cyclopentyl]-1,3,4-oxadiazol-2-one], in series [1] (setting [6]), the 50% inhibitory concentration (IC50) was 40.6 nM.
Consider `Cn1cnc2ncn(Cc3nn([C@H]4C[C@H](c5ccc(Cl)cc5)C4)c(=O)o3)c(=O)c21` [Example Compound 50, 3-[3-(4-chlorophenyl)cyclobutyl]-5-[(7-methyl-6-oxo-purin-1-yl)methyl]-1,3,4-oxadiazol-2-one], for which the “RLM-CLhep” value in series [2] was found to be 12 mL/min/kg. Moreover, the “HLM-CLhep” value in series [3] was determined as 5 mL/min/kg. In addition, the “Rat IV PK (hepatic clearance)” value in series [4] was determined as 10 mL/min/kg.
With `Cn1cnc2ncn(Cc3nn([C@H]4C[C@H](c5ccc(Br)cc5)C4)c(=O)o3)c(=O)c21` [compound 52, 3-[3-(4-bromophenyl)cyclobutyl]-5-[(7-methyl-6-oxo-purin-1-yl)methyl]-1,3,4-oxadiazol-2-one], in series [1] (setting [6]), the IC50 worked out at 20 nM.
In the case of `Cc1csc2ncc(Cc3nn(CCc4ccc(Cl)cc4)c(=O)o3)c(=O)n12` [compound 47, 3-(4-chlorophenethyl)-5-((3-methyl-5-oxo-5H-thiazolo[3,2-a]pyrimidin-6-yl)methyl)-1,3,4-oxadiazol-2(3H)-one], the IC50 in series [1] (setting [6]) came out at 65 nM.
For `Cn1cnc2ncn(Cc3nn(C[C@@H](F)c4ccc(Cl)cc4)c(=O)o3)c(=O)c21` [compound 15, (S)-3-(2-(4-chlorophenyl)-2-fluoroethyl)-5-((7-methyl-6-oxo-6H-purin-1(7H)-yl)methyl)-1,3,4-oxadiazol-2(3H)-one], the IC50 in series [1] (setting [6]) was determined as 3830 nM.
Still for that read-out and setting: to `Cn1cnc2ncn(Cc3nn(C[C@@H](F)c4ccc(Br)cc4)c(=O)o3)c(=O)c21` [compound 45, (S)-3-(2-(4-bromophenyl)-2-fluoroethyl)-5-((7-methyl-6-oxo-6H-purin-1(7H)-yl)methyl)-1,3,4-oxadiazol-2(3H)-one] belongs 1200 nM; to `Cc1ccnc2ncn(Cc3nn(C[C@H](F)c4ccc(OC(F)F)cc4)c(=O)o3)c(=O)c12` (racemic) [compound 80, 5-[(5-methyl-4-oxo-pyrido[2,3-d]pyrimidin-3-yl)methyl]-3-[rac-(2R)-2-[4-(difluoromethoxy)phenyl]-2-fluoro-ethyl]-1,3,4-oxadiazol-2-one], 11.9 nM.
As for `Cc1cc(CCn2nc(Cn3cnc4ncn(C)c4c3=O)oc2=O)ccc1Cl` [compound 39, 3-(4-chloro-3-methylphenethyl)-5-((7-methyl-6-oxo-6H-purin-1(7H)-yl)methyl)-1,3,4-oxadiazol-2(3H)-one], the IC50 in series [1] (setting [6]) came to 113 nM.
On to `Cn1cnc2ncn(Cc3nn(CCc4ccc(-c5ccccc5)cc4)c(=O)o3)c(=O)c21` [compound 55, 5-[(7-methyl-6-oxo-purin-1-yl)methyl]-3-[2-(4-phenylphenyl)ethyl]-1,3,4-oxadiazol-2-one], for which the IC50 in series [1] (setting [6]) came to 251 nM.
On the same count and under the same terms, to `Cc1cncc2ncn(Cc3nn(CCc4ccc(Cl)cc4)c(=O)o3)c(=O)c12` [compound 6, 3-(4-chlorophenethyl)-5-((5-methyl-4-oxopyrido[3,4-d]pyrimidin-3(4H)-yl)methyl)-1,3,4-oxadiazol-2(3H)-one] belongs 13 nM; to `Cn1cnc2ncn(Cc3nn([C@@H]4CC[C@@H](c5ccc(F)cc5)C4)c(=O)o3)c(=O)c21` [compound 92, 5-[(7-methyl-6-oxo-purin-1-yl)methyl]-3-[(1R,3R)-3-(4-fluorophenyl)cyclopentyl]-1,3,4-oxadiazol-2-one], 8.26 nM.
As for `Cn1cnc2cnn(Cc3nn(CCc4ccc(Cl)cc4)c(=O)o3)c(=O)c21` [compound 35, 3-[2-(4-chlorophenyl)ethyl]-5-[(3-methyl-4-oxo-imidazo[4,5-d]pyridazin-5-yl)methyl]-1,3,4-oxadiazol-2-one], in series [1] (setting [6]), the IC50 came out at 96 nM.
Turning to `Cc1ccnc2ncn(Cc3nn([C@@H]4CC[C@@H](c5ccc(F)cc5)C4)c(=O)o3)c(=O)c12` (racemic) [compound 67, 5-[(5-methyl-4-oxo-pyrido[2,3-d]pyrimidin-3-yl)methyl]-3-[rac-(1R,3R)-3-(4-fluorophenyl)cyclopentyl]-1,3,4-oxadiazol-2-one], in series [1] (setting [6]), the IC50 worked out at 4.76 nM.
On to `Cn1cnc2ncn(Cc3nn([C@H]4C[C@H](Oc5cccc(Cl)c5)C4)c(=O)o3)c(=O)c21` [compound 70, trans-3-[3-(3-chlorophenoxy)cyclobutyl]-5-[(7-methyl-6-oxo-purin-1-yl)methyl]-1,3,4-oxadiazol-2-one], for which, in series [1] (setting [6]), the IC50 came to 17.7 nM.
Still for that read-out and setting: to `Cc1ccnc2ncn(Cc3nn(CC(F)c4ccc(Cl)cc4)c(=O)o3)c(=O)c12` (stereo in doubt) [compound 34, 5-[(5-methyl-4-oxo-pyrido[2,3-d]pyrimidin-3-yl)methyl]-3-[(2S)-2-(4-chlorophenyl)-2-fluoro-ethyl]-1,3,4-oxadiazol-2-one] belongs 5 nM.
On to `Cn1cnc2ncn(Cc3nn([C@H]4C[C@H](c5ccc(Cl)c(F)c5)C4)c(=O)o3)c(=O)c21` [compound 106, 3-[3-(4-chloro-3-fluoro-phenyl)cyclobutyl]-5-[(7-methyl-6-oxo-purin-1-yl)methyl]-1,3,4-oxadiazol-2-one], for which the IC50 in series [1] (setting [6]) is 29.9 nM.
In the case of `Cn1cnc2ncn(Cc3nn(CCc4ccc(Cl)cc4)c(=O)o3)c(=O)c21` [Example Compound 1, 3-[2-(4-chlorophenyl)ethyl]-5-[(7-methyl-6-oxo-purin-1-yl)methyl]-1,3,4-oxadiazol-2-one], the 50% inhibitory concentration (IC50) in series [1] (setting [5]) turned out to be 95 nM. In addition, the “RLM-CLhep” value in series [2] was 34 mL/min/kg. In addition, the “HLM-CLhep” value in series [3] turned out to be 11 mL/min/kg. Also, in series [4], the “Rat IV PK (hepatic clearance)” value amounted to 48 mL/min/kg.
Regarding `Cn1c(=O)ccc2ncn(Cc3nn(C[C@H](F)c4ccc(Cl)cc4)c(=O)o3)c(=O)c21` (racemic) [compound 87, 5-methyl-3-[[5-oxo-4-[rac-(2R)-2-(4-chlorophenyl)-2-fluoro-ethyl]-1,3,4-oxadiazol-2-yl]methyl]pyrido[3,2-d]pyrimidine-4,6-dione], the IC50 in series [1] (setting [6]) turned out to be 43.8 nM.
On to `Cn1cnc2ncn(Cc3nn(CCc4ccc(Cl)c(-c5ccccc5)c4)c(=O)o3)c(=O)c21` [compound 42, 3-(2-(6-chlorobiphenyl-3-yl)ethyl)-5-((7-methyl-6-oxo-6H-purin-1(7H)-yl)methyl)-1,3,4-oxadiazol-2(3H)-one], for which, in series [1] (setting [6]), the IC50 amounted to 98 nM.
